The values that follow are results of earlier work, collected in publication PMC5629142 (Drugs in R&D, 2017).

Structures are written as SMILES.

For the series the following is noted: TBZ co-administered with CYP2D6 inhibitors.

Consider `COc1cc2c(cc1OC)[C@@H]1C[C@H](O)[C@@H](CC(C)C)CN1CC2` [α-HTBZ], for which the “increase in overall exposure” value was 3 fold.
